Laboratory results from patent publication US4562292A, “Trifluoromethylketone sulfides and reversible enzyme inhibition therewith” (priority 1983, dated 1985).
Read-outs that look alike come from different tables or passages of the source.

Assays:
clofibrate esterase = assay: hydrolysis of clofibrate by microsomal protein; type: biochemical, human
Excerpt: The drug clofibrate (α-[4-chlorophenoxy)-α-methylpropionate; Atromid-S) is one of a class of compounds given to heart patients as a hypolipidemic agent.

JH esterase = JH esterase inhibition in T. ni hemolymph; type: biochemical, Trichoplusia ni; details: for IC50: diluted T. ni larval plasma, 10 min preincubation at 30° C., 5×10^-6 M JH III, read-out: I50 (M) JHE
Method: JH esterase activity was monitored in the hemolymph collected from last stadium day two larvae of the cabbage looper, Trichoplusia ni, Lepidoptera, Noctuidae. The plasma was diluted (v/v) in sodium phosphate buffer (pH 7.4, 0.08M with 0.01% [w/v] phenyulthiourea) and frozen at -60° C. until used. The inventive compounds were added in 1μ liter of ethanol to 100μ liters of the diluted plasma and preincubated for 10 min at 30° C. before adding substrate (ClO^3 H JH III New England Nuclear and unlabeled E, E JH III, Calbiochem) in 1μ liter of ethanol to give a final concentration of 5×10^-6 M JH III containing about 30,000 dpm/assay (Hammock and Sparks, Anal. Biochem. 82, 573 (1977).
(§1) In each case, at least three replicates of each inhibitor concentration were used. A minimum of two inhibitor concentrations showing greater and less than 50% inhibition were used to determine the I50 values from semilog plots except in the case of weaker inhibitors. Only those points on the apparently linear portion of the curve were used to calculate the I50 's.

α-NAE = assay: α-Naphtyl acetate (α-NA) hydrolysis in T. ni prepupal hemolymph; type: biochemical, Trichoplusia ni; details: hemolymph of T. ni prepupae, substrate 2.3×10^-4 M; read-out: I50 (M) α-NAE
Method: α-Naphtyl acetate (α-NA) hydrolysis was monitored similarly in the hemolymph of prepupae of T. ni (fifth stadium, day 4) with a final substrate of 2.3×10^-4 M. Plasma dilutions and incubation times were chosen to give a hydrolysis rate which was linear with time.
as §1

[1] = biological target: T1, Type VI-S electric eel AChE (Electrophorus electricus, UniProt O42275); assay: acetylcholinesterase (AChE) activity; type: biochemical
T1 construct: purchased Sigma Type VI-S
T1 sequence (O42275 24-633): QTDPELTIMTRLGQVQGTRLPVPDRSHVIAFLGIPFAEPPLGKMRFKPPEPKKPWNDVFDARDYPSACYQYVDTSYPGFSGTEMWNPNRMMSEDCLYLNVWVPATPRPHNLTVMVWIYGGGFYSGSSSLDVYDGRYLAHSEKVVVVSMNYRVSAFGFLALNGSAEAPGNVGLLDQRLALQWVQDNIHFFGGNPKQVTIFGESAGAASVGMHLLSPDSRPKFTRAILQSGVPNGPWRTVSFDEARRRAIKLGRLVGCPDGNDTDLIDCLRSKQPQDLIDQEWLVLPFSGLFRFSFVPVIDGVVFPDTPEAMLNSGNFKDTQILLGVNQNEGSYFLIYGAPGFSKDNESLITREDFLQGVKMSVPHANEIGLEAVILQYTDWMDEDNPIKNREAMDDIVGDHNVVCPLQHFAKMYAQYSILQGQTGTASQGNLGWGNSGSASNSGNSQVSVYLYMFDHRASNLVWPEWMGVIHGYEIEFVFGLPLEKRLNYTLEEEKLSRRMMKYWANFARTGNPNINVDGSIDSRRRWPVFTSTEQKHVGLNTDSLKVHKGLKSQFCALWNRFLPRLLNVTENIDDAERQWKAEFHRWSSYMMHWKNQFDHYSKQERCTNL
Method: For acetylcholinesterase (AChE) activity, 20μ liters of acetylthiocholine iodide (Sigma) in sodium phosphate buffer (0.05M, ph 7.2) was added to Type VI-S electric eel AChE (Sigma, 10 ng with 2-400 units/mg protein) in 3 ml the same buffer to give a final substrate concentration of 5×10^-4 M. The assay was run at 37° C.
(§2) For AChE, trypsin and α-ChT, the inhibitor was added to ethanol 10 min prior to the substrate and preincubated at the same temperature used for the actual assay. In no case was greater than 1% v/v ethanol added, and ethanol controls were always run. For the spectrophotometric enzyme assays, initial studies were run on a Varian-Cary 219 UV/visible spectrophotometer, while subsequent assays were run on a Gilford manual EIA reading using disposable cuvettes.
as §1

[2] = biological target: T2, bovine pancreatic type III trypsin (Bos taurus, UniProt P00760); assay: trypsin activity; type: biochemical
T2 construct: purchased Sigma type III
T2 sequence (P00760 24-246): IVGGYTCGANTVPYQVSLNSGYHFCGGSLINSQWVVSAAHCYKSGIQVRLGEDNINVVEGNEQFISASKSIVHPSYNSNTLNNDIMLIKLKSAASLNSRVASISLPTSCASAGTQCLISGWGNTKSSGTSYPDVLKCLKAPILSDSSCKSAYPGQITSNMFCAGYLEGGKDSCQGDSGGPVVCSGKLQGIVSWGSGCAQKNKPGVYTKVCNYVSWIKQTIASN
Method: For trypsin, 1.5 ml of p-toluenesulfonyl-L-arginine methyl ester (Sigma) in Tris HCl buffer (pH 8.1, 0.04M with 0.1M CaCl2) was added to 1.5 ml of the same buffer containing bovine pancreatic type III trypsin (Sigma, 0.24 μg) to give a final substrate concentration of 1×10^-4 M. The assay was performed at 25° C.
as §2, §1

T. ni larvae [3] = assay: topical treatment of T. ni larvae, time of pupation; type: in vivo, Trichoplusia ni; details: for delay of pupation versus ethanol controls: 0.1 and 0.2μ mole per application, 3 times per day, L5D1 and D2, topical; for delay of pupation: topical
Method: (§3) T. ni larvae are treated with 1 or 2μ liters of ethanol, with TFPOS, wit o-ethyl-S-phenyl phosphoramidothiolate (EPPAT), or with 1,1,1-trifluorotetradecan-2-one (TFT) in 1×10^-1 M ethanol solutions on the dorsum of the thorax three times per day (4, 12 and 17 hr after lights on) during the first two days of the last larval stadium. The insects were held under standard rearing conditions (27° C., 14 hr light, 10 hr dark). The time of pupation was checked daily at 4 hr after lights on and the pupae were checked for successful emergence two weeks later.
(§4) Larvae were treated on the dorsum of the thorax with 1 or 2μ liters of ethanol (control) and with 1 or 2μ liters, respectively, of 10^-1 M TFT, TFPOS, DTFT or EPPAT in ethanol, 3 times per day at 4, 12 and 17 h ALO (after lights on) on L5Dl and D2. Time of pupation was checked daily at 4 h ALO, and emergence was checked 2 weeks after treatment. L5Dl larvae 4 h ALO were also treated, but only once with 1μ liter ethanol or with 1μ liter of 10-1 M TFT, TFPOS, or EPPAT in ethanol, and then were bled at 1, 8, 12, 23, 28, or 32 h after treatment. Hemolymph was collected from five larvae, mixed and frozen at -60° C. until assayed for JHE and α-NAE activity. […] Death usually occured during the larval-pupal transformation, with the control mortality at 2μ liters of ethanol being 1%, TFT at 0.2M being 6%, an TFPOS being 4%.

T. ni JHE [4] = assay: in vivo inhibition of T. ni JHE after topical application; set-up: species or system Trichoplusia ni; details: for maximum percent inhibition obtainable after treatment / selectivity for JHE in vivo: compared with EPPAT
Method: as §4
In another study, the in vivo inhibition of T. ni JHE following a single dose (0.1μ moles/larve) of EPPAT and TFPOS respectively was monitored. Maximum inhibition of T. ni JHE was obtained one hour after topical application for each.

T. ni larvae [5] = assay: mortality of T. ni larvae after repeated topical applications; type: in vivo, Trichoplusia ni
Method: as §3, §4

T. ni JHE [6] = assay: removal of inhibitor by dialysis (reversibility of inhibition); type: biochemical, Trichoplusia ni
[7] = acetylthiocholine iodide 5×10^-4 M, 37° C., * = greater than, read-out: I50 (M) AChE
[8] = p-toluenesulfonyl-L-arginine methyl ester 1×10^-4 M, 25° C., read-out: I50 (M) Trypsin (*greater than)

Compound	IC50 (JH esterase) [M]	IC50 (α-NAE) [M]	IC50 [1, 7] [M]	IC50 [2, 8] [M]	also measured
O=C(CSc1ccc(Cl)cc1)C(F)(F)F [Compound 19]	–	–	–	–	Wilkinson kinetics (clofibrate esterase; clofibrate hydrolysis): curves expected for a slowly reversible inhibitor; effect on hydrolysis of clofibrate (clofibrate esterase; low concentrations, Vm 104 nmol/min mg microsomal protein, Km 5.5 mM, ethanol release): significant delay in reacting maximal velocity
Cc1ccc(SCC(=O)C(F)(F)F)cc1 [Compound 11]	1.1e-07	1.6e-06	6.1e-07	> 0.0001	–
CC(C)c1ccccc1SCC(=O)C(F)(F)F [Compound 12]	3.4e-07	2.7e-07	4.9e-08	4.7e-05	–
O=C(CSc1ccc(Br)cc1)C(F)(F)F [Compound 20]	4.1e-07	4.9e-06	2.4e-06	> 1e-05	–
CCCCCCCCCCCCSCC(=O)C(F)(F)F [Compound 5]	1.5e-08	9.7e-05	2.2e-06	> 0.0001	–
CCCCCCCCCCSCC(=O)C(F)(F)F [Compound 3]	2e-08	1e-05	3.2e-06	8.2e-05	–
COC(C)(C)CCC/C(C)=C/CCSCC(=O)C(F)(F)F [Compound 32, (E)-8,12-Dimethyl-12-methoxy-4-Thia-1,1,1-trifluorotridec-7-en-2-one]	3.1e-09	1.9e-06	–	–	IC50 [1]: > 0.0001 M; IC50 [2]: > 0.0001 M
CCCCCCCCCSCC(=O)C(F)(F)F [Compound 2]	3.7e-09	6.3e-06	9.3e-07	> 0.0001	–
O=C(CSC1CCCCC1)C(F)(F)F [Compound 6]	5.2e-06	7.1e-07	1.8e-06	> 0.0001	–
CC(C)=CCC/C(C)=C/CCSCC(=O)C(F)(F)F [Compound 31, (E)-8,12-dimethyl-4-thia-1,1,1-trifluorotrideca-7,11-dien-2-one]	3.2e-09	7.2e-07	6.2e-05	> 0.0001	delay of pupation versus ethanol controls (T. ni larvae [3]; listed as DTFT): pupation was delayed with respect to the controls in a dose-dependent manner; maximum percent inhibition obtainable after treatment (T. ni JHE [4]): as effective; selectivity for JHE in vivo (T. ni JHE [4]): more selective for JHE in vivo than EPPAT
Cc1ccccc1SCC(=O)C(F)(F)F [Compound 9]	4.3e-06	6e-07	3.7e-07	8.5e-05	–
CCCCCCCCCCCSCC(=O)C(F)(F)F [Compound 4]	4.3e-08	4.5e-05	2.6e-06	> 0.0001	–
CCCCCCCCSCC(=O)C(F)(F)F [Compound 1, 1,1,1-Trifluoro-3-thioocytylpropan-2-one]	–	1.2e-06	2.3e-06	> 1e-05	inhibition I50 value, juvenile hormone esterases (JH esterase; in words): nanomolar range; times more active in vitro for juvenile hormone esterase than TFT (JH esterase; versus TFT): over 40 times; delay of pupation versus ethanol controls (T. ni larvae [3]; listed as TFPOS): pupation was delayed with respect to the controls in a dose-dependent manner; delay of pupation (T. ni larvae [3]; 0.2μ moles/application): more dramatic; in vivo activity (T. ni larvae [3]; in vivo): pronounced in vivo activity; delay of pupation (T. ni larvae [3]; repeated doses of 0.1μ moles, first two days of last larval stadium): effective in delaying the pupation; mortality at 0.2 µmol/application (T. ni larvae [5]; Trichoplusia, topical, repeated applications of 2μ liters (0.2 moles/application), Example VIII): 4%; mortality (T. ni larvae [5]; repeated 1μ liter applications of 1×10^-1 M solution): No mortality; maximum percent inhibition obtainable after treatment (T. ni JHE [4]): as effective; selectivity for JHE in vivo (T. ni JHE [4]): more selective for JHE in vivo than EPPAT; time of maximum inhibition of T. ni JHE after topical application (T. ni JHE [4]; single dose 0.1μ moles/larve): one; enzyme activity after dialysis (T. ni JHE [6]; 48 hours after starting the dialysis): restored gradually to the same activity as in the uninhibited enzyme; t0.5 of reactivation (T. ni JHE [6]; dialysis): more than 20 hours; type of inhibition of T. ni JHE (T. ni JHE [6]; dialysis): reversible inhibitors
